# Measured values from patent publication US20110070190A1 (Roche Palo Alto LLC, priority 2009, published 2011).
# What was measured:
# [1] = molecular target: T1, HCV polymerase (NS5B570n-Con1) (Hepatitis C virus genotype 1b, UniProt Q9WMX2); test: HCV NS5B RNA polymerase activity (incorporation of radiolabeled nucleotide into acid insoluble RNA); type: biochemical, HCV Con1 strain
# T1 construct: a 21 amino acid C-terminal deletion of full-length HCV polymerase; made in house; host or cells: E. coli BL21(DE3) pLysS, plasmid pET17b
# Procedure: The enzymatic activity of HCV polymerase (NS5B570n-Con1) was measured as the incorporation of radiolabeled nucleotide monophosphates into acid insoluble RNA products. Unincorporated radiolabeled substrate was removed by filtration and scintillant was added to the washed and dried filter plate containing radiolabeled RNA product. The amount of RNA product generated by NS5B570n-Con1 at the end of the reaction was directly proportional to the amount of light emitted by the scintillant.
# The HCV polymerase used in the enzymatic activity assay is a 21 amino acid C-terminal deletion of full-length HCV polymerase derived from HCV Con1 strain, genotype 1b (GenBank accession number AJ242654) (NS5B570n-Con1). The NS5B570n-Con1 was sub-cloned downstream to the T7 promoter of the plasmid expression construct pET17b and transformed into E. coli strain BL21(DE3) pLysS for protein expression. A single colony was used to start an innoculum for a 10 L culture in LB media supplemented with 100 μg/mL ampicillin at 37° C. Protein expression was induced by the addition of 0.25 mM isopropyl-β-D-thiogalactopyranoside (IPTG) when the optical density of the culture at […] was 0.8. Induction of protein expression was carried out at 30° C. for 16 h after which the cells were harvested by centrifugation. NS5B570n-Con1 was purified to homogeneity using a three-column purification protocol including subsequent column chromatography on Ni-NTA, SP-Sepharose HP and Superdex 75 resins.
# Enzymatic reactions in the presence of cIRES RNA template (see paragraph [00213]) contained 20 nM cIRES RNA, 20 nM NS5B570n-Con1 enzyme, 0.5 μCi of tritiated UTP (Perkin Elmer catalog no. TRK-412; specific activity: 30 to 60 Ci/mmol;), 1 μM each ATP, CTP, and GTP, 40 mM Tris-HCl pH 8.0, 40 mM NaCl, 4 mM DTT (dithiothreitol), 4 mM MgCl2, 5 μl of compound serial diluted in DMSO, and nuclease-free water to a final reaction volume of 50 μl. Enzymatic reactions in the presence of poly A RNA template (see paragraph [00213]) contained 20 nM Poly A:oligo(rU)16 premixed (see section 0004), 20 nM NS5B570n-Con1 enzyme, 1 μCi of tritiated UTP (Perkin Elmer catalog no. TRK-412; specific activity: 30 to 60 Ci/mmol), 40 mM Tris-HCl pH 8.0, 40 mM NaCl, 4 mM DTT (dithiothreitol), 4 mM MgCl2, 5 μl of compound serial diluted in DMSO, and nuclease-free water to a final reaction volume of 50 μl. Reaction mixtures were assembled in 96-well filter plates (cat #MADVN0B, Millipore Co.) and incubated for 2 h at 30° C. Reactions were stopped by addition of 10% final (v/v) trichloroacetic acid and incubated for 40 min at 4° C. Reactions were filtered, washed with 8 reaction volumes of 10% (v/v) trichloroacetic acetic acid, 4 reaction volumes of 70% (v/v) ethanol, air dried, and 25 μl of scintillant (Microscint 20, Perkin-Elmer) was added to each reaction well.
# Two RNA templates were used to assay compounds described herein. The cIRES RNA template was 377 nucleotide long and consisted of a partial complementary sequence (36 nucleotides) of the core protein, followed by 341 nucleotide of the complementary sequence of the internal ribosome entry site. The poly A RNA template (GE Amersham catalog number 27-4110) was a homopolymeric RNA pre-annealed to a oligo(rU)16 primer at a molar ratio of 3-to-1 (primer-template).
# The amount of light emitted from the scintillant was converted to counts per minute (CPM) on a Topcount® plate reader (Perkin-Elmer, Energy Range: Low, Efficiency Mode: Normal, Count Time: 1 min, Background Subtract: none, Cross talk reduction: Off).
# Data was analyzed in Excel® (Microsoft®) and ActivityBase® (Idbs®). The reaction in the absence of enzyme was used to determine the background signal, which was subtracted from the enzymatic reactions. Positive control reactions were performed in the absence of compound, from which the background corrected activity was set as 100% polymerase activity. All data was expressed as a percentage of the positive control. […]
# [2] = tested on: HCV replicon cells (2209-23), genotype 1b replicon in human hepatoma Huh7 cells; test: HCV replicon assay (Renilla luciferase reporter); type: cell-based, HCV genotype 1b; settings: Hepatitis C virus, Huh-7, 72 h; 2209-23 cells, three days incubation
Structure (SMILES),IC50 [1] [nM],IC50 [2] [nM]
"Cc1ccc(Cn2cnc(=O)c3sc(-c4ccc(-c5cc6nc(C)cc(N)n6n5)cc4)cc32)cc1 [Compound I-38, 6-[4-(7-Amino-5-methyl-pyrazolo[1,5-a]pyrimidin-2-yl)-phenyl]-1-(4-methyl-benzyl)-1H-thieno[3,2-d]pyrimidin-4-one]",210,47.2
"Cc1cc(N)n2nc(-c3ccc(-c4cc5c(s4)c(=O)ncn5Cc4ccc(Cl)cc4)cc3Cl)cc2n1 [Compound I-2, 6-[4-(7-Amino-5-methyl-pyrazolo[1,5-a]pyrimidin-2-yl)-3-chloro-phenyl]-1-(4-chloro-benzyl)-1H-thieno[3,2-d]pyrimidin-4-one]",4,4.1
